Patent publication US7884114B2, “Compounds” (Glaxo Group Limited, priority 2007, dated 2011)
Counter-ions that a name gives are not always drawn. Like-named read-outs stand apart in the source and are kept apart here.

How the values were obtained:
human H1 receptor [1] = target: T1, human H1 receptor (Homo sapiens, UniProt P35367); assay: Histamine H1 functional antagonist assay (FLIPR): antagonist pA2; assay type: cell-based
T1 construct: expressed in transfected cells
Description: (§1) The human H1 receptor is cloned using known procedures described in the literature [Biochem. Biophys. Res. Commun., 201(2):894 (1994)]. Chinese hamster ovary (CHO) cells stably expressing the human H1 receptor are generated according to known procedures described in the literature [Br. J. Pharmacol., 117(6):1071 (1996)].
Histamine H1 Functional Antagonist Assay: Determination of Antagonist pA2 and Duration
The histamine H1 receptor expressing CHO cells are seeded into non-coated black-walled clear bottom 96-well tissue culture plates as described above.
Following overnight culture, growth medium is removed from each well, washed with 200 μl PBS and is replaced with 50 μl loading dye (250 μM Brilliant Black, 1 μM Fluo-4 diluted in Tyrodes buffer+probenecid (145 mM NaCl, 2.5 mM KCl, 10 mM HEPES, 10 mM D-glucose, 1.2 mM MgCl2, 1.5 mM CaCl2, 2.5 mM probenecid, pH adjusted to 7.40 with NaOH 1.0 M)). Cells are incubated for 45 min at 37° C. The loading buffer is removed and the cells are washed as above, and 90 μl of Tyrodes buffer+probenecid is added to each well. 10 μl of test compound, diluted to the required concentration in Tyrodes buffer+probenecid (or 10 μl Tyrodes buffer+probenecid as a control) is added to each well and the plate is incubated for 30 min at 37° C., 5% CO2.
The plates are then placed into a FLIPR™ (Molecular Devices, UK) to monitor cell fluorescence (λex=488 nm, λEM=540 nm) in the manner described in Sullivan et al., (In: Lambert D G (ed.), Calcium Signaling Protocols, New Jersey: Humana Press, 1999, 125-136) before and after the addition of 50 μl histamine over a concentration range of 1 mM-0.1 nM. […] The antagonist pA2 is calculated using the following standard equation: pA2=log(DR−1)−log [ B] where DR=dose ratio, defined as EC50antagonist-treated/EC50control and [B]=concentration of antagonist.

human H1 receptor [2] = target: T1, human H1 receptor; assay: Histamine H1 functional antagonist assay (FLIPR): functional pKi; assay type: cell-based; conditions: CHO cells expressing human H1 receptor, histamine EC80, read-out: average pKi (pKb) at H1 (converted)
Description: as §1
10 μl of test compound, diluted to the required concentration in Tyrodes buffer+probenecid (or 10 μl Tyrodes buffer+probenecid as a control) is added to each well and the plate is incubated for 30 min at 37° C., 5% CO2.

[3] = system: histamine-induced nasal congestion; assay: Intranasal challenge method: whole body plethysmography, histamine-induced nasal congestion; assay type: in vivo, Dunkin-Hartley guinea pigs; conditions: for inhibition of response to histamine challenge: dosed intranasally at 1 mg/ml
Description: Intranasal Challenge Method: Whole Body Plethysmography
Female Dunkin-Hartley guinea pigs 150-250 g are sensitised twice daily for 5 days (week 1) with ovalbumin (OVA) and aluminium hydroxide (Al(OH)3 or Alum) in physiological saline, 25 μl/nostril. Solution is made up at 20 μg/ml OVA, 180 mg/ml Alum. During weeks 2 and 3 animals receive 25 μl/nostril of OVA (5 mg/ml) once daily. During Week 4 guinea pigs will be entered into study but are continually sensitized as per weeks 2 and 3 until the day before dosing with compound or vehicle.
(b) Compound Vehicle Pretreatment
Pretreatment with test compound is performed at various times prior to histamine challenge. Efficacy dose-response curves are determined 1 hr and/or 3 hr after dosing whereas duration of action may be studied up to 7 days post dose (for example, at 24 hours). Test compounds are formulated as solutions in 0.9% sterile saline or suspensions in 0.9% sterile saline/tween80.
Guinea pigs were anaesthetised with isoflurane (5%, 2-31/min O2), placed in a supine position, and 25 μl of test compound or vehicle dosed into each nostril using a Gilson pipette. After dosing, animals remain supine for at least 30 seconds (e.g. 60 seconds) during recovery from anaesthesia.
(c) Histamine Challenge Protocol
G. & Gelfand, E. W. (1997), Noninvasive measurement of airway responsiveness in allergic mice using barometric plethysmography., Am. J. Respir. Crit. Care Med., 156, 766-775.
After the stipulated pre-dose time has been reached, guinea pigs are re-anaesthetised with isoflurane and dosed with either 10 mM or 15 mM histamine or phosphate-buffered saline (PBS), (25 μl per nostril). […] These recordings are summed to give a cumulative AUC over 40 mins post histamine challenge for each animal. Data are analysed using ANOVA with post-hoc Fishers LSD test (general linear models, Statistica®) and finally Hochberg adjustment. Inhibition of histamine-induced congestion is determined by statistically significant differences between the mean responses of compound pre-treated groups compared to the vehicle pre-treated, histamine-challenged group.

human H1 receptor [4] = target: T1, human H1 receptor; assay: Histamine H1 functional antagonist assay: antagonist duration after washout; assay type: cell-based; conditions: at one or more time points
Description: The human H1 receptor is cloned using known procedures described in the literature [Biochem. Biophys. Res. Commun., 201(2):894 (1994)]. Chinese hamster ovary (CHO) cells stably expressing the human H1 receptor are generated according to known procedures described in the literature [Br. J. Pharmacol., 117(6):1071 (1996)]. […] Following the 30 min antagonist incubation period, the cells are washed two or three times with 200 μl of PBS and then 100 μl Tyrodes buffer is added to each well to initiate antagonist dissociation. […] After this period, the cells are challenged with histamine in the FLIPR™ as described above. […] The decrease in receptor occupancy over time approximates to a straight line and is analysed by linear regression. The slope of this straight line fit is used as an index of the dissociation rate of the antagonist. The dose ratios for antagonist treated cells and for antagonist treated and washed cells at each time point are used to calculate a relative dose ratio (rel DR) which is also used as an index of antagonist duration. Antagonists with long duration of action produce rel DR values close to 1, and antagonists with short duration of action produce rel DR values that approaches the dose ratio value obtained for antagonist treatment alone.

[5] = CHO cells expressing H1 receptor, FLIPR, histamine concentration response curves, read-out: average pA2 (converted)

T1 sequence (P35367 whole entry): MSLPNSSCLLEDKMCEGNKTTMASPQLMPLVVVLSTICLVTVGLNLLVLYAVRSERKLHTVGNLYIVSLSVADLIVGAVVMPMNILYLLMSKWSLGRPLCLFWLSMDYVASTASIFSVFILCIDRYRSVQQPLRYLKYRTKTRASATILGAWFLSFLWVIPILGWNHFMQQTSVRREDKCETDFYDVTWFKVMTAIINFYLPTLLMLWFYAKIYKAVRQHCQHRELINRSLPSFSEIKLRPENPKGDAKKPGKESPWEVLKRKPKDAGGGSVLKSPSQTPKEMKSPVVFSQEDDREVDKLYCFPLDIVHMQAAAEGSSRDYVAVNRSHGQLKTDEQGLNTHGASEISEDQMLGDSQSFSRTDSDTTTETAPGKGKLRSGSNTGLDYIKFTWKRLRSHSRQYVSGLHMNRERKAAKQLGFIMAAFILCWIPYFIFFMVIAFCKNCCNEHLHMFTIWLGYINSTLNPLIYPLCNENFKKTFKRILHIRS

| Structure (SMILES) | Kb (human H1 receptor [1]; [5]) | other results |
| --- | --- | --- |
| CCCCc1cc(OC2CCN(CCS(=O)(=O)C(C)(C)C)CC2)c2ncccc2c1 [Example 2, 6-Butyl-8-[(1-{2-[(1,1-dimethylethyl)sulfonyl]ethyl}-4-piperidinyl)oxy]quinoline, dihydrochloride salt] | < 1 nM |  |
| CCCCc1cc(OC2CCN(CCCS(C)(=O)=O)CC2)c2ncccc2c1 [Example 3, 6-Butyl-8-({1-[3-(methylsulfonyl)propyl]-4-piperidinyl}oxy)quinoline, dihydrochloride salt] | < 10 nM |  |
| CCCCc1cc(OC2CCN(CCCS(=O)(=O)C3CCCC3)CC2)c2ncccc2c1 [Example 8, 6-Butyl-8-({1-[3-(cyclopentylsulfonyl)propyl]-4-piperidinyl}oxy)quinoline, formate salt (1:1)] |  | Kb (human H1 receptor [1]): < 100 nM |
| CCCCCc1cc(OC2CCN(CCCS(=O)(=O)CC)CC2)c2ncccc2c1 [Example 11, 8-({1-[3-(Ethylsulfonyl)propyl]-4-piperidinyl}oxy)-6-pentylquinoline, dihydrochloride salt] | < 1 nM |  |
| CCCCc1cc(O[C@@H]2CCN(CCCS(=O)(=O)C(C)(C)C)C2)c2ncccc2c1 [Example 12, 6-Butyl-8-[((3R)-1-{3-[(1,1-dimethylethyl)sulfonyl]propyl}-3-pyrrolidinyl)oxy]quinoline, dihydrochloride salt] | < 100 nM |  |
| CCCCc1cc(OC2CCN(C3CCS(=O)(=O)C3)CC2)c2ncccc2c1 (stereo not drawn) [Example 13, 6-Butyl-8-{[1-(1,1-dioxidotetrahydro-3-thienyl)-4-piperidinyl]oxy}quinoline] | < 100 nM | Ki (human H1 receptor [2]): < 100 nM |
| CCCCc1cc(OC2CCN(CCNS(=O)(=O)CC(C)C)CC2)c2ncccc2c1 [Example 15, N-(2-{4-[(6-Butyl-8-quinolinyl)oxy]-1-piperidinyl}ethyl)-2-methyl-1-propanesulfonamide, dihydrochloride salt] | < 10 nM | Ki (human H1 receptor [2]): < 100 nM |
| CCCCc1cc(OC2CCN(CCNS(=O)(=O)c3ccccc3)CC2)c2ncccc2c1 [Example 16, N-(2-{4-[(6-Butyl-8-quinolinyl)oxy]-1-piperidinyl}ethyl)benzenesulfonamide, dihydrochloride salt] | < 10 nM | Ki (human H1 receptor [2]): < 100 nM |
| CCCCc1cc(OC2CCN(CCCNS(=O)(=O)CCC)CC2)c2ncccc2c1 [Example 18, N-(3-{4-[(6-Butyl-8-quinolinyl)oxy]-1-piperidinyl}propyl)-1-propanesulfonamide, dihydrochloride salt] | < 1 nM |  |
| CCCCc1cc(OC2CCN(CCCNS(=O)(=O)C(C)C)CC2)c2ncccc2c1 [Example 19, N-(3-{4-[(6-Butyl-8-quinolinyl)oxy]-1-piperidinyl}propyl)-2-propanesulfonamide, dihydrochloride salt] | < 1 nM |  |
| CCCCc1cc(OC2CCN(CCCCNS(=O)(=O)CC)CC2)c2ncccc2c1.Cl.Cl [Example 23B, N-(4-{4-[(6-Butyl-8-quinolinyl)oxy]-1-piperidinyl}butyl)ethanesulfonamide, dihydrochloride salt] |  | inhibition of response to histamine challenge ([3]; 3 hr before histamine challenge): significantly (p<0.05) inhibited the response; inhibition of response to histamine challenge ([3]; 24 hr before histamine challenge): significantly (p<0.05) inhibited the response |
| CCCCc1cc(OC2CCN(CCCCNS(=O)(=O)CC(C)C)CC2)c2ncccc2c1 [Example 26, N-(4-{4-[(6-Butyl-8-quinolinyl)oxy]-1-piperidinyl}butyl)-2-methyl-1-propanesulfonamide, dihydrochloride salt] |  | duration of action compared with azelastine (human H1 receptor [4]): longer duration of action than azelastine |
| CCCCc1cc(OC2CCN(CCCCNS(=O)(=O)CC3CCCCC3)CC2)c2ncccc2c1 [Example 28, N-(4-{4-[(6-Butyl-8-quinolinyl)oxy]-1-piperidinyl}butyl)-1-cyclohexyl methane sulfonamide, dihydrochloride salt] | < 10 nM |  |
| CCCCc1cc(OC2CCN(CCCCCNS(C)(=O)=O)CC2)c2ncccc2c1 [Example 31, N-(5-{4-[(6-Butyl-8-quinolinyl)oxy]-1-piperidinyl}pentyl)methanesulfonamide, dihydrochloride salt] | < 1 nM |  |
| CCCCc1cc(OC2CCN(CCCCCNS(=O)(=O)CC)CC2)c2ncccc2c1 [Example 32, N-(5-{4-[(6-Butyl-8-quinolinyl)oxy]-1-piperidinyl}pentyl)ethanesulfonamide, dihydrochloride salt] | < 1 nM |  |
| CCCCc1cc(OC2CCN(CCCNC(=O)NCCC)CC2)c2ncccc2c1 [Example 36, N-(3-{4-[(6-Butyl-8-quinolinyl)oxy]-1-piperidinyl}propyl)-N′-propylurea, dihydrochloride salt] |  | Kb (human H1 receptor [1]): < 1 nM |
| CN1CCCC(n2nc(Cc3ccc(Cl)cc3)c3ccccc3c2=O)CC1 (stereo not drawn) [azelastine, reference compound] |  | duration of action in intranasal challenge model ([3]; administered at the same concentration (1 mg/ml intranasally)): failed to show a similar duration of action |
